IC50 data for ten compounds are collected here from patent EP4800018A1, “PAN-KRAS INHIBITOR AND USE THEREOF IN MEDICINES” (Betta Pharmaceuticals Co., Ltd., priority 2023, dated 2025).

Common to all, as to assay type: cell-based
Experiment [1] addresses T1, KRAS G12V-cRAF (Homo sapiens, UniProt P01116, G12V).
T1 construct: expressed in transfected cells
Nature of the experiment: Cellular KRAS G12V-cRAF Binding Inhibition Assay (NanoBRET, AD293 stable cells). To be noted: 3 h incubation, read-out: NanoBRET KRAS G12V. The method, then: NanoLuc® luciferase was used as the energy donor, and NanoBRET™ 618 fluorescent ligand labeled with the HaloTag® protein was used as the energy acceptor to detect protein-protein interactions in living cells. […] Except for wells with medium added as a blank control, NanoBRET™ 618 fluorescent ligand was added to all other wells, and the plates were cultured overnight in a cell culture incubator. […] The luminescence data were calculated and converted into inhibition percent. The inhibition percent of KRAS G12V-cRAF binding was calculated according to the following formula: Inhibition Percent = (MaxValue−MeasuredValue)/(MaxValue−Blank) × 100% [formula] […] Curve fitting was performed using GraphPad Prism software to obtain IC50 values, see Table 1.

Experiment [2] relates to KRAS-G12V mutant tumor cells SW620. Nature of the experiment: Cell Proliferation Inhibition Assay (SW620), Cell-titer GLO, 96 h. Conditions: Homo sapiens, SW-620, 96 h, SW620 cells, 96 h incubation, Cell-titer GLO; read-out: SW620(G12V). In short, it runs like this:
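SW620 cells (1×10^3/well, low-attachment) were exposed to compound from 10000 to 0.03 nM (0.5% DMSO) for 96 h at 37°C. Viability was read by Cell-titer GLO luminescence. Inhibition was calculated relative to DMSO and blank wells, and IC50 obtained by curve fitting.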

Experiment [3] addresses T2, KRAS G12D-cRAF (Homo sapiens, UniProt P01116, G12D).
T2 construct: expressed in transfected cells
In words: Cellular KRAS G12D-cRAF Binding Inhibition Assay (NanoBRET, AD293 stable cells). Conditions: 3 h incubation, read-out: NanoBRET KRAS G12D. As for the experimental part:
NanoLuc® luciferase was used as the energy donor, and NanoBRET™ 618 fluorescent ligand labeled with the HaloTag® protein was used as the energy acceptor to detect protein-protein interactions in living cells. AD293 stable cells transfected with KRAS G12D-NanoLuc® luciferase and cRAF RBD-HaloTag® tag protein were seeded in 96-well plates at a cell density of 1×10^4 cells/well. Except for wells with medium added as a blank control, NanoBRET™ 618 fluorescent ligand was added to all other wells, and the plates were cultured overnight in a cell culture incubator. […] The luminescence data were calculated and converted into inhibition percent. The inhibition percent of KRAS G12D-cRAF binding was calculated according to the following formula: Inhibition Percent = (MaxValue−MeasuredValue)/(MaxValue−Blank) × 100% [formula] […] Curve fitting was performed using GraphPad Prism software to obtain IC50 values, see Table 1.

Experiment [4] deals with KRAS-G12D mutant tumor cells AGS. Nature of the experiment: Cell Proliferation Inhibition Assay (AGS), Cell-titer GLO, 96 h. Conditions: Homo sapiens, AGS, 96 h, AGS cells, 96 h incubation, Cell-titer GLO; read-out: AGS(G12D). The procedure, abridged:
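AGS cells (KRAS-G12D) grown in low-attachment plates were exposed to compound for 96 h at 37°C. Viability was read by CellTiter-Glo luminescence and converted to % inhibition against max and blank wells. IC50 came from curve fitting.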

T1 sequence (P01116 1-188 isoform P01116-2 G12V): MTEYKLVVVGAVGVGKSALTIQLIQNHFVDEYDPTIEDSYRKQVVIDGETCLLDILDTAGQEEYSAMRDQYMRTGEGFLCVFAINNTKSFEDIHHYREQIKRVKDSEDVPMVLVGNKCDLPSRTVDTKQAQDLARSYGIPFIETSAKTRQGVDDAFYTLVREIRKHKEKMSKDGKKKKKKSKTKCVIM
T2 sequence (P01116 1-188 isoform P01116-2 G12D): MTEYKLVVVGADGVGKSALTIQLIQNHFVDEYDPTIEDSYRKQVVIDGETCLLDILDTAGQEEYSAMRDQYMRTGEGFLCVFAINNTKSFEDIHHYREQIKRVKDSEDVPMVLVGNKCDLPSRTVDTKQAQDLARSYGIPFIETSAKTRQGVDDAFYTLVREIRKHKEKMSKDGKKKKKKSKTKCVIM

As to `CC1OCCCn2c(c3c4cc(ccc42)-c2csc(n2)CC(NC(=O)C24CC(C)(C2)C4)C(=O)N2CCCC(N2)C(=O)OCC(C)(C)C3)-c2cc(N3CCN(C)CC3)cnc21` [Example 80, 3-methyl-N-((1^53 ^3S,4S,Z)-1^5,10,10-trimethyl-1^2-(4-methylpiperazin-1-yl)-5,7-dioxo-1^8,1^9,6^1,6^2 ,6^3,6^4,6^5,^6-octahydro-1^5H,1^7H-8-oxa-1(13,15)-pyrido[3',2':7,8][1,5]oxazonino[5,6-a]indola-2(4, 2)-thiazola-6(1,3)-pyridazinacycloundecaphane-4-yl)bicyclo[1.1.1]pentane-1-carboxamide], the IC50 was determined as 21.3 nM in experiment [1], 0.3 nM in experiment [2], 5.7 nM in experiment [3] and 1.76 nM in experiment [4].

As for `CC1OCCCn2c(c3c4cc(ccc42)-c2csc(n2)CC(NC(=O)C2CC2C(F)F)C(=O)N2CCCC(N2)C(=O)OCC(C)(C)C3)-c2cc(N3CCN(C)CC3)cnc21` [Example 81, (1S,2S)-2-(difluoromethyl)-N-((1^5S,6^3S,4S,Z)-1^5,10,10-trimethyl-1^2-(4-methylpiperazin-1-yl)-5,7-dioxo-1^8,1^9,6^1,6^2,6^3,6^4,6^5,6^6-octahydro-1^5H,1^7H-8-oxa-1(13,15)-pyrido[3',2':7,8][1,5]oxazonino[5,6-a]indola-2(4,2)-thiazola-6(1,3)-pyridazinacycloundecaphane-4-yl)cyclopropane-1-carboxamide], the IC50 is 9.6 nM in experiment [1], 0.11 nM in experiment [2], 3.14 nM in experiment [3] and 0.79 nM in experiment [4].

For `CC1OCCCn2c(c3c4cc(ccc42)-c2csc(n2)CC(NC(=O)C2CC2C(F)F)C(=O)N2CCCC(N2)C(=O)OCC(C)(C)C3)-c2cc(N3CCOCC3)cnc21` [Example 83, (1S,2S)-2-(difluoromethyl)-N-((1^5S,6^3S,4S,Z)-1^5,10,10-trimethyl-1^2-morpholino-5,7-dioxo-1^8,1^9, 6^1,6^2,6^3,6^4,6^56-octahydro-1^5H,1^7H-8-oxa-1(13,15)-pyrido[3',2':7,8][1,5]oxazonino[5,6-a]indola-2(4,2)-thiazola-6(1,3)-pyridazinacycloundecaphane-4-yl)cyclopropane-1-carboxamide], the IC50 was 11.9 nM in experiment [1], 0.33 nM in experiment [2], 2.88 nM in experiment [3] and 2.04 nM in experiment [4].

As to `CCN1CCN(c2cnc3c(c2)-c2c4c5cc(ccc5n2CCCOC3C)-c2csc(n2)CC(NC(=O)C2CC2C(F)F)C(=O)N2CCCC(N2)C(=O)OCC(C)(C)C4)CC1` [Example 84, (1S,2S)-2-(difluoromethyl)-N-((1^5S,6^3S,4S,Z)-1^2-(4-ethylpiperazin-1-yl)-1^5,10,10-trimethyl-5,7-dioxo-1^8,1^9,6^1,6^2,6^3,6^4,6^5,6^6-octahydro-1^5H,1^7H-8-oxa-1(13,15)-pyrido[3',2':7,8][1,5]oxazonino[5,6-a]indola-2(4,2)-thiazola-6(1,3)-pyridazinacycloundecaphane-4-yl)cyclopropane-1-carboxamide], the IC50 is 9.17 nM in experiment [1], 0.19 nM in experiment [2], 2.76 nM in experiment [3] and 1.15 nM in experiment [4].

Consider `CC1OCCCn2c(c3c4cc(ccc42)-c2csc(n2)CC(NC(=O)C2CC2C(F)F)C(=O)N2CCCC(N2)C(=O)OCC(C)(C)C3)-c2cc(N3CCN(C4CC4)CC3)cnc21` [Example 85, (1S,2S)-N-((1^5S,6^3S,4S,Z)-1^2-(4-cyclopropylpiperazin-1-yl)-15,10,10-trimethyl-5,7-dioxo-1^8,1^9,6 ,6^2,6^3,6^4,6^5,6^6-octahydro-1^5H,1^7H-8-oxa-1(13,15)-pyrido[3',2':7,8][1,5]oxazonino[5,6-a]indola-2(4,2)-thiazola-6(1,3)-pyridazinacycloundecaphane-4-yl)-2-(difluoromethyl)cyclopropane-1-car boxamide], for which the IC50 in experiment [1] came to 19.9 nM; in experiment [2] it was 0.63 nM; in experiment [3], 5.56 nM; in experiment [4], 3.72 nM.

For the compound `CC1OCCCn2c(c3c4cc(ccc42)-c2csc(n2)CC(NC(=O)C2CC2C(F)F)C(=O)N2CCCC(N2)C(=O)OCC(C)(C)C3)-c2cc(N3CCN(C(C)C)CC3)cnc21` [Example 86, (1S,2S)-2-(difluoromethyl)-N-((1^5S,6^3S,4S,Z)-1^2-(4-isopropylpiperazin-1-yl)-1^5,10,10-trimethyl-5,7-dioxo-1^8,1^9,6^1,6^2,6^3,6^4,6^5,6^6-octahydro-1^5H,1^7H-8-oxa-1(13,15)-pyrido[3',2':7,8][1,5]oxazonino[5,6-a]indola-2(4,2)-thiazola-6(1,3)-pyridazinacycloundecaphane-4-yl)cyclopropane-1-carbox amide], the IC50 is 11 nM in experiment [1], 0.17 nM in experiment [2], 2.19 nM in experiment [3] and 1.19 nM in experiment [4].

Take `CC1OCCCn2c(c3c4cc(ccc42)-c2csc(n2)CC(NC(=O)C2CC2C(F)F)C(=O)N2CCCC(N2)C(=O)OCC(C)(C)C3)-c2cc(N(C)CCN(C)C)cnc21` [Example 87, (1S,2S)-2-(difluoromethyl)-N-((1^5S,6^3S,4S,Z)-1^2-((2-(dimethylamino)ethyl)(methyl)amino)-1^5,1 0,10-trimethyl-5,7-dioxo-1^8,1^9,6^1,6^2,6^3,6^4,6^5,6^6-octahydro-1^5H,1^7H-8-oxa-l(13,15)-pyrido[3',2':7 ,8][1,5]oxazonino[5,6-a]indola-2(4,2)-thiazola-6(1,3)-pyridazinacycloundecaphane-4-yl)cyclopr opane-1-carboxamide]: the IC50 worked out at 184 nM in experiment [1], 2.75 nM in experiment [2], 38.8 nM in experiment [3] and 8.3 nM in experiment [4].

Turning to `[2H]C([2H])([2H])N1CCN(c2cnc3c(c2)-c2c4c5cc(ccc5n2CCCOC3C)-c2csc(n2)CC(NC(=O)C2CC2C(F)F)C(=O)N2CCCC(N2)C(=O)OCC(C)(C)C4)CC1` [Example 91, (1S,2S)-2-(difluoromethyl)-N-((1^5S,6^3S,4S,Z)-1^5,10,10-trimethyl-1^2-(4-(methyl-d3)piperazin-1-yl)-5,7-dioxo-1^8,1^9,6^1,6^2,6^3,6^4,6^5,6^6-octahydro-1^5H,1^7H-8-oxa-1(13,15)-pyrido[3',2':7,8][1,5]oxazonino[5,6-a]indola-2(4,2)-thiazola-6(1,3)-pyridazinacycloundecaphane-4-yl)cyclopropane-1-carb oxamide], the IC50 in experiment [1] is 10.3 nM; in experiment [2] it was 0.21 nM; in experiment [3] it was 2.7 nM; in experiment [4] it was 1.51 nM.

For `CC1OCCCn2c(c3c4cc(ccc42)-c2csc(n2)CC(NC(=O)C2CC2C(F)F)C(=O)N2CCCC(N2)C(=O)OCC(C)(C)C3)-c2cc(N3CC(N(C)C)C3)cnc21` [Example 94, (1S,2S)-2-(difluoromethyl)-N-((1^5S,6^3S,4S,Z)-1^2-(3-(dimethylamino)azetidin-1-yl)-1^5,10,10-trimethyl-5,7-dioxo-1^8,1^9,6^1,6^2,6^3,6^4,6^5,6^6-octahydro-1^5H,1^7H-8-oxa-1(13,15)-pyrido[3',2':7,8][1,5]oxazonino[5,6-a]indola-2(4,2)-thiazola-6(1,3)-pyridazinacycloundecaphane-4-yl)cyclopropane-1-carboxamide], the IC50 in experiment [1] is 22.7 nM; in experiment [2], 0.34 nM; in experiment [3], 6.55 nM; in experiment [4] it was 2.68 nM.

Take `CC1OCCCn2c(c3c4cc(ccc42)-c2csc(n2)CC(NC(=O)C2CC2C(F)F)C(=O)N2CCCC(N2)C(=O)OCC(C)(C)C3)-c2cc(-c3ccc(N4CCN(C)CC4)cc3)cnc21` [Example 96, (1S,2S)-2-(difluoromethyl)-N-((1^5S,6^3S,4S,Z)-1^5,10,10-trimethyl-1^2-(4-(4-methylpiperazin-1-yl)phenyl)-5,7-dioxo-1^8,1^9,6^1,6^2,6^3,6^4,6^5,6^6-octahydro-15H,17H-8-oxa-1(13,15)-pyrido[3',2':7,8][1, 5]oxazonino[5,6-a]indola-2(4,2)-thiazola-6(1,3)-pyridazinacycloundecaphane-4-yl)cyclopropane-1-carboxamide]: the IC50 in experiment [1] came out at 19.8 nM; in experiment [2], 1.07 nM; in experiment [3], 5.99 nM; in experiment [4] it was 2.4 nM.
